Broadly, the EC50 is the concentration at which the effect is half-maximal.

Sequence of recombinant human nicotinic acid receptor (NAR) (Q8TDS4 whole entry): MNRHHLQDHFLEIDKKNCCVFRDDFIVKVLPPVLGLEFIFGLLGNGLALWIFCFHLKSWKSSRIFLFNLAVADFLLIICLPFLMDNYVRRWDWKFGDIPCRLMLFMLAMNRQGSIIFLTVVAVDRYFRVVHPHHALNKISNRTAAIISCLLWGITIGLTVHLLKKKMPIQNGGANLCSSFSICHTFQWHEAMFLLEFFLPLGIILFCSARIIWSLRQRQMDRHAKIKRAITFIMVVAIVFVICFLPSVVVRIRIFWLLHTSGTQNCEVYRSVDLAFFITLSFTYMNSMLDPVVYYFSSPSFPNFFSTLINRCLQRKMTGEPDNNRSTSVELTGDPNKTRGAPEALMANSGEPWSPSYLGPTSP

One test addresses recombinant human nicotinic acid receptor (NAR) (Homo sapiens, UniProt Q8TDS4). Kind of test: Nicotinic Acid Receptor Assay: inhibition of forskolin-stimulated cAMP accumulation in CHO cells (MesoScale Discovery cAMP kit). It counts as cell-based. The conditions noted are these: CHO cells expressing recombinant human NAR; forskolin-stimulated cAMP; read-out: NA EC50 camp. In short, it runs like this: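 Compounds were diluted in PBS containing 6 μM forskolin and incubated with cells for 30 min at room temperature. cAMP was quantified by the MesoScale kit against an on-plate standard curve.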
On the technique in general: Changes in cAMP serve as a functional read-out for many G protein-coupled receptors.
For the compound `CCc1cc(=O)oc2nc(OCC(C)(C)S(=O)(=O)c3ccc(Cl)cc3)[nH]c(=O)c12` [Compound 663], the EC50 is over 1000 nM.

As to `CCc1cc(=O)oc2nc(OCC#CCCOC)[nH]c(=O)c12` [Compound 664], the concentration giving a half-maximal response (EC50) was 100 to 1000 nM.

Take `CCc1cc(=O)oc2nc(OCc3conc3C)[nH]c(=O)c12` [Compound 665]: the EC50 was over 1000 nM.

Take `CCc1noc(C)c1COc1nc2oc(=O)cc(CC)c2c(=O)[nH]1` [Compound 666]: the EC50 was in the range of 0.001 to 100 nM.

Consider `CCc1cc(=O)oc2nc(OCc3cnoc3C)[nH]c(=O)c12` [Compound 668], for which the EC50 was over 1000 nM.

Take `CCc1cc(=O)oc2nc(OCC#CC(CC)OC)[nH]c(=O)c12` (stereo not shown) [Compound 669]: the EC50 lay within 100 to 1000 nM.

Take `CCCCc1cc(=O)oc2nc(OCC#CCOC)[nH]c(=O)c12` [Compound 670]: the EC50 lay within 0.001 to 100 nM.

`CCc1cc(=O)oc2nc(OCC#CC(O)CC)[nH]c(=O)c12` (stereo not shown) [Compound 671]: the half-maximal effective concentration (EC50) was 0.001 to 100 nM.

Consider `CCc1cc(=O)oc2nc(OCC#CC(C)OC)[nH]c(=O)c12` (stereo not shown) [Compound 672], for which the EC50 lay in the range of 100 to 1000 nM.

For the compound `CCc1cc(=O)oc2nc(OCc3cc(C)nn3C(C)(C)C)[nH]c(=O)c12` [Compound 673], the EC50 was 100 to 1000 nM.

On to `CCc1cc(=O)oc2nc(OCc3cc(C)nn3CC)[nH]c(=O)c12` [Compound 678], for which the EC50 lay within 100 to 1000 nM.

In the case of `CCCCc1cc(=O)oc2nc(OCC#CC(O)CC)[nH]c(=O)c12` (stereo not shown) [Compound 679], the EC50 lay in the range of 0.001 to 100 nM.

As for `CCCCc1cc(=O)oc2nc(OCC#CC(C)O)[nH]c(=O)c12` (stereo not shown) [Compound 680], the EC50 is 0.001 to 100 nM.

As to `CCCCc1cc(=O)oc2nc(OCc3cc[n+]([O-])cc3)[nH]c(=O)c12` [Compound 681], the EC50 was over 1000 nM.

Regarding `CCCCc1cc(=O)oc2nc(OCc3ccccn3)[nH]c(=O)c12` [Compound 682], the EC50 is over 1000 nM.

With `CN(C)CCOc1nc2oc(=O)cc(Cc3cccc(F)c3)c2c(=O)[nH]1` [Compound 683], the EC50 is over 1000 nM.

`COCC#CCOc1nc2oc(=O)cc(Cc3cccc(F)c3)c2c(=O)[nH]1` [Compound 684]: the EC50 was 0.001 to 100 nM.

For the compound `CCc1noc(C)c1COc1nc2oc(=O)cc(Cc3cccc(F)c3)c2c(=O)[nH]1` [Compound 685], the EC50 lay within 100 to 1000 nM.

For `CCOc1nc2oc(=O)cc(CCC(C)C)c2c(=O)[nH]1` [Compound 686], the EC50 lay within 100 to 1000 nM.

`CCOc1nc2oc(=O)cc(CCC3CCCC3)c2c(=O)[nH]1` [Compound 687]: the EC50 lay in the range of 100 to 1000 nM.

With `CCc1noc(C)c1COc1nc2oc(=O)cc(CCC(C)C)c2c(=O)[nH]1` [Compound 688], the EC50 fell in the range of 100 to 1000 nM.

Regarding `CCc1noc(C)c1COc1nc2oc(=O)cc(CCC3CCCC3)c2c(=O)[nH]1` [Compound 689], the EC50 fell in the range of 100 to 1000 nM.

Regarding `Cc1cc(=O)oc2nc(OCc3csc4ccccc34)[nH]c(=O)c12` [Compound 690], the EC50 was over 1000 nM.

For the compound `CCOC(=O)NOc1nc2oc(=O)cc(CCC3CCC3)c2c(=O)[nH]1` [Compound 691], the EC50 lay in the range of 0.001 to 100 nM.

As for `CCCCCCc1cc(=O)oc2nc(ONC(=O)OCC)[nH]c(=O)c12` [Compound 692], the EC50 lay within 0.001 to 100 nM.

For the compound `CCOC(=O)NOc1nc2oc(=O)cc(CCC3CCCC3)c2c(=O)[nH]1` [Compound 693], the EC50 lay within 100 to 1000 nM.

As for `CCOC(=O)NOc1nc2oc(=O)cc(CCC(C)C)c2c(=O)[nH]1` [Compound 694], the EC50 was over 1000 nM.

In the case of `CCCCCc1cc(=O)oc2nc(ONC(=O)OCC)[nH]c(=O)c12` [Compound 695], the EC50 fell in the range of 0.001 to 100 nM.

As for `CCOC(=O)NOc1nc2oc(=O)cc(CCC3CC3)c2c(=O)[nH]1` [Compound 696], the EC50 lay within 100 to 1000 nM.

In the case of `O=c1[nH]c(=O)c2c(CCC3CCC3)c(-c3ccccc3)c(=O)oc2[nH]1` [Compound 699], the EC50 was over 1000 nM.

With `O=c1[nH]c(=O)c2c(CCC3CCC3)c(-c3ccc(F)cc3)c(=O)oc2[nH]1` [Compound 700], the EC50 is over 1000 nM.

Turning to `O=c1[nH]c(=O)c2c(CCC3CCC3)c(-c3ccc(C(F)(F)F)cc3)c(=O)oc2[nH]1` [Compound 701], the EC50 is over 1000 nM.

As for `N#Cc1ccc(-c2c(CCC3CCC3)c3c(=O)[nH]c(=O)[nH]c3oc2=O)cc1` [Compound 702], the EC50 is over 1000 nM.

Regarding `CCOc1ccc(-c2c(CCC3CCC3)c3c(=O)[nH]c(=O)[nH]c3oc2=O)cc1` [Compound 703], the EC50 was over 1000 nM.

On to `CC(=O)Nc1ccc(-c2c(CCC3CCC3)c3c(=O)[nH]c(=O)[nH]c3oc2=O)cc1` [Compound 704], for which the EC50 is over 1000 nM.

Consider `CCCCc1c(-c2ccc(Cl)cc2)c(=O)oc2[nH]c(=O)[nH]c(=O)c12` [Compound 705], for which the EC50 is over 1000 nM.

For `CCCCc1c(-c2ccc(F)cc2)c(=O)oc2[nH]c(=O)[nH]c(=O)c12` [Compound 706], the EC50 is over 1000 nM.

In the case of `CCCCc1c(-c2cccc(OC)c2)c(=O)oc2[nH]c(=O)[nH]c(=O)c12` [Compound 707], the EC50 is over 1000 nM.

As for `CCCCc1c(-c2ccc(C(F)(F)F)cc2)c(=O)oc2[nH]c(=O)[nH]c(=O)c12` [Compound 708], the EC50 was in the range of 100 to 1000 nM.

On to `CCCCc1c(-c2ccc(C#N)cc2)c(=O)oc2[nH]c(=O)[nH]c(=O)c12` [Compound 709], for which the EC50 is over 1000 nM.

As for `CCCCc1c(-c2ccc(NC(C)=O)cc2)c(=O)oc2[nH]c(=O)[nH]c(=O)c12` [Compound 710], the EC50 is over 1000 nM.

The test is the same for the next values; noted with them: NA EC50 camp (nM), CHO cells expressing recombinant human NAR; forskolin-stimulated cAMP.
Regarding `CCc1noc(CC)c1COc1nc2oc(=O)cc(CC)c2c(=O)[nH]1` [Compound 667], the EC50 lay in the range of 100 to 1000 nM.

Still in this test, the particulars now being: NA EC50 camp, inhibition of forskolin-stimulated cAMP accumulation, CHO cells expressing recombinant human NAR.
For the compound `CCCCc1cc(=O)oc2nc(OCC#CC3CC3)[nH]c(=O)c12` [Compound 735], the EC50 amounted to 94 nM.

As to `O=c1cc(CCCC2CC2)c2c(=O)[nH]c(C(F)F)nc2o1` [Compound 740], the EC50 stood at 130 nM.

For `CCCCCc1cc(=O)oc2nc(C(F)F)[nH]c(=O)c12` [Compound 743], the EC50 stood at 212 nM.

`O=c1cc(CCC2CCC2)c2c(=O)[nH]c(C(F)F)nc2o1` [Compound 748]: the EC50 came out at 286 nM.

With `CCCCc1cc(=O)oc2nc(C(F)F)[nH]c(=O)c12` [Compound 750], the EC50 was determined as 1890 nM.

Take `O=c1cc(CCC2CC2)c2c(=O)[nH]c(C(F)F)nc2o1` [Compound 752]: the EC50 was determined as 248 nM.

The test is the same for the next values; noted with them: inhibition of forskolin-stimulated cAMP accumulation, CHO cells expressing recombinant human NAR; read-out: NA EC50 camp.
As for `CCOC(=O)NOc1nc2oc(=O)cc(CCC3CCC3)c2c(=O)[nH]1` [Compound 691], the EC50 was found to be 47.5 nM.

For the compound `CCC#CCOc1nc2oc(=O)cc(CCCC(C)C)c2c(=O)[nH]1` [Compound 715], the EC50 stood at 671 nM.

In the case of `CC#CCOc1nc2oc(=O)cc(CCCC3CC3)c2c(=O)[nH]1` [Compound 717], the EC50 turned out to be 259 nM.

For `CCC#CC(C)Oc1nc2oc(=O)cc(CCCC3CC3)c2c(=O)[nH]1` (stereo not shown) [Compound 718], the EC50 was determined as 162 nM.

Turning to `CCCCC#CCOc1nc2oc(=O)cc(CCCC3CC3)c2c(=O)[nH]1` [Compound 719], the EC50 is 152 nM.

Consider `CCCC#CCOc1nc2oc(=O)cc(CCC3CC3)c2c(=O)[nH]1` [Compound 721], for which the EC50 came out at 226 nM.

As to `O=c1cc(CCC2CC2)c2c(=O)[nH]c(OCC#CC3CC3)nc2o1` [Compound 722], the EC50 turned out to be 111 nM.

Take `CCc1cc(=O)oc2nc(OCC#CC(C)OC)[nH]c(=O)c12` (stereo not shown) [Compound 723]: the EC50 amounted to 296 nM.

For the compound `CCc1cc(=O)oc2nc(OCC#CCCOC)[nH]c(=O)c12` [Compound 726], the EC50 is 219 nM.

As to `CCc1cc(=O)oc2nc(OCC#CC(C)O)[nH]c(=O)c12` (stereo not shown) [Compound 729], the EC50 was 49.9 nM.

On to `CCC#CC(C)Oc1nc2oc(=O)cc(CC)c2c(=O)[nH]1` (stereo not shown) [Compound 730], for which the EC50 turned out to be 156 nM.

For `CCC#CCOc1nc2oc(=O)cc(CCCC)c2c(=O)[nH]1` [Compound 734], the EC50 amounted to 71.8 nM.

For `CCCCc1cc(=O)oc2nc(OCC#CC(O)CC)[nH]c(=O)c12` (stereo not shown) [Compound 736], the EC50 came out at 32.9 nM.

For `CCCCc1cc(=O)oc2nc(OCC#CC(C)O)[nH]c(=O)c12` (stereo not shown) [Compound 737], the EC50 came out at 59.5 nM.

For `O=c1cc(CCCC2CC2)c2c(=O)[nH]c(CF)nc2o1` [Compound 741], the EC50 was determined as 123 nM.

For the compound `CCCCCc1cc(=O)oc2nc(C(F)F)nc(OCc3ccc(OC)cc3)c12` [Compound 742], the EC50 amounted to 1070 nM.

Consider `CCCCCc1cc(=O)oc2nc(CF)[nH]c(=O)c12` [Compound 744], for which the EC50 was found to be 128 nM.

Regarding `O=c1cc(CCC2CCCC2)c2c(=O)[nH]c(CF)nc2o1` [Compound 747], the EC50 was 1230 nM.

With `O=c1cc(CCC2CCC2)c2c(=O)[nH]c(CF)nc2o1` [Compound 749], the EC50 is 182 nM.

As to `CSCCCc1cc(=O)oc2nc(CF)[nH]c(=O)c12` [Compound 751], the EC50 is 487 nM.

In the case of `O=c1cc(CCC2CC2)c2c(=O)[nH]c(CF)nc2o1` [Compound 753], the EC50 was determined as 228 nM.

Take `CCCCCCc1cc(=O)oc2nc(CF)[nH]c(=O)c12` [Compound 755]: the EC50 is 286 nM.

As for `N#Cc1c(CCCC2CC2)c2c(=O)[nH]c(=O)[nH]c2oc1=O` [Compound 759], the EC50 was determined as 2330 nM.

On to `O=c1cc(CCC2CCCC2)c2c(=O)[nH]c(C(F)(F)F)nc2o1` [Compound 763], for which the EC50 came out at 7730 nM.

For the compound `CCCCc1cc(=O)oc2nc(C(F)(F)F)[nH]c(=O)c12` [Compound 764], the EC50 is 8920 nM.

In the case of `CCc1cc(=O)oc2[nH]c(=O)n(OC)c(=O)c12` [Compound 768], the EC50 was 384 nM.

In the case of `COn1c(=O)[nH]c2oc(=O)cc(CCC3CCC3)c2c1=O` [Compound 769], the EC50 amounted to 19 nM.

On to `COn1c(=O)[nH]c(=O)c2c(CCC3CCC3)cc(=O)oc21` [Compound 771], for which the EC50 is 17 nM.

As to `COn1c(=O)[nH]c2oc(=O)cc(CCC3CCCC3)c2c1=O` [Compound 772], the EC50 came to 39 nM.

Take `COn1c(=O)[nH]c(=O)c2c(CCC3CCCC3)cc(=O)oc21` [Compound 773]: the EC50 came out at 48.5 nM.

Regarding `COn1c(=O)[nH]c2oc(=O)cc(CCCC3CC3)c2c1=O` [Compound 774], the EC50 is 28 nM.
